From the CheMixHub ionic liquid set
Where “and” joins values, the source holds several entries; their conditions need not be identical. Identical values can stand only once. ± gives the uncertainty stated by the source.

Experiment: xn = mol fraction of the nth substance listed

CCCC[n+]1ccn(C)c1.O=S(=O)([O-])C(F)(F)F + CN(C)c1ccccc1
Conditions	viscosity [mPa·s]
308.15 K, 100 kPa, x2 = 0	52.2 ± 2.3

CCCC[N+]1(C)CCCC1.O=S(=O)([N-]S(=O)(=O)C(F)(F)F)C(F)(F)F + CO
101 kPa, frequency 0.001 MHz
Conditions	electrical conductivity [S/m]
293.15 K, x1 = 0.05	0.368 ± 0.057
293.15 K, x1 = 0.26	1.77 ± 0.039
293.15 K, x1 = 0.37	2.11 ± 0.03
298.15 K, x1 = 0.26	1.93 ± 0.04
303.15 K, x1 = 0.26	2.17 ± 0.05
303.15 K, x1 = 0.42	2.61 ± 0.03
308.15 K, x1 = 0.26	2.38 ± 0.049
308.15 K, x1 = 0.47	2.85 ± 0.035
308.15 K, x1 = 0.68	1.84 ± 0.051
313.15 K, x1 = 0.32	2.79 ± 0.048
313.15 K, x1 = 0.53	2.91 ± 0.05
313.15 K, x1 = 0.68	2.08 ± 0.057
313.15 K, x1 = 0.74	1.8 ± 0.052
313.15 K, x1 = 0.84	1.29 ± 0.068
313.15 K, x1 = 1	0.488 ± 0.005
318.15 K, x1 = 0.21	2.4 ± 0.1
318.15 K, x1 = 0.63	2.55 ± 0.064
318.15 K, x1 = 0.68	2.27 ± 0.056
318.15 K, x1 = 0.79	1.7 ± 0.058
318.15 K, x1 = 0.84	1.43 ± 0.07

101 kPa
Conditions	viscosity [mPa·s]
293.15 K, x1 = 0.05	1.02 ± 0.14
293.15 K, x1 = 0.26	8.31 ± 0.54
293.15 K, x1 = 0.37	12.95 ± 0.69
298.15 K, x1 = 0.26	7.2 ± 0.46
303.15 K, x1 = 0.26	6.29 ± 0.4
303.15 K, x1 = 0.42	11.11 ± 0.54
308.15 K, x1 = 0.26	5.53 ± 0.34
308.15 K, x1 = 0.47	10.87 ± 0.49
308.15 K, x1 = 0.68	16.54 ± 0.76
313.15 K, x1 = 0.32	6.15 ± 0.33
313.15 K, x1 = 0.53	10.55 ± 0.47
313.15 K, x1 = 0.68	14.3 ± 0.65
313.15 K, x1 = 0.74	16.1 ± 0.75
313.15 K, x1 = 0.84	21.3 ± 1.1
313.15 K, x1 = 1	35.7 ± 1.5
318.15 K, x1 = 0.21	3.3 ± 0.25
318.15 K, x1 = 0.63	11.22 ± 0.51
318.15 K, x1 = 0.68	12.47 ± 0.57
318.15 K, x1 = 0.79	15.95 ± 0.78
318.15 K, x1 = 0.84	18.39 ± 0.93
318.15 K, x1 = 0.95	25.2 ± 1.3

CCCC[n+]1ccn(C)c1.COP(=O)([O-])OC + CO
viscosity [mPa·s], 101 kPa
Conditions	293.15 K	308.15 K	313.15 K	318.15 K
x2 = 0.404	–	68.7 ± 1	–	44.37 ± 0.55
x2 = 0.8	7.184 ± 0.084	–	4.401 ± 0.052	–

CCCC[n+]1ccn(C)c1.N[C@@H](CCC(=O)O)C(=O)[O-] + CO
101 kPa
Conditions	viscosity [mPa·s]
298.15 K, x2 = 0.2002	46.1 ± 4.3
298.15 K, x2 = 0.2995	34.4 ± 3.2
298.15 K, x2 = 0.7	4.97 ± 0.46
298.15 K, x2 = 0.9	1.24 ± 0.12
303.15 K, x2 = 0.6002	9.62 ± 0.9
308.15 K, x2 = 0.6002	8.63 ± 0.8
308.15 K, x2 = 0.8001	2.83 ± 0.26
313.15 K, x2 = 0.2002	25.6 ± 2.4
313.15 K, x2 = 0.7	4.55 ± 0.42

CCCC[n+]1ccn(C)c1.[Cl-] + CO
101 kPa, frequency 0 MHz
Conditions	electrical conductivity [S/m]
293.15 K, x1 = 0.007978	0.93 ± 0.24
303.15 K, x1 = 0.00449	0.66 ± 0.25
313.15 K, x1 = 0.002223	0.42 ± 0.32
313.15 K, x1 = 0.00354	0.6 ± 0.29
323.15 K, x1 = 0.00449	0.83 ± 0.31

101 kPa
Conditions	electrical conductivity [S/m]	viscosity [mPa·s]
293.15 K, x2 = 0.5001	–	65 ± 11
293.15 K, x2 = 0.5458	–	40.4 ± 6.2
298.15 K, x2 = 0.7015	2.19 ± 0.04	7.5 ± 1.2
303.15 K, x2 = 0.5594	–	27.1 ± 4.2
303.15 K, x2 = 0.7001	–	6.8 ± 1.1
308.15 K, x2 = 0.8999	–	1.19 ± 0.3
308.15 K, x2 = 0.95	–	0.79 ± 0.24

CCCCCC[n+]1ccc(C)cc1.[Br-] + CO/N=C(\C(=O)N[C@@H]1C(=O)N2C(C(=O)[O-])=C(CSc3nc(=O)c(=O)[n-]n3C)CS[C@H]12)c1csc(N)n1.[Na+].[Na+] + O
viscosity [mPa·s], 100 kPa
Conditions	288.15 K	293.15 K	298.15 K	303.15 K	308.15 K
x2 = 0, x1 = 0.0007045	1.172 ± 0.048	1.028 ± 0.042	0.913 ± 0.038	0.817 ± 0.034	0.738 ± 0.03
x2 = 0, x1 = 0.001062	1.183 ± 0.049	1.039 ± 0.043	0.924 ± 0.038	0.824 ± 0.034	0.746 ± 0.031
x2 = 0, x1 = 0.001422	1.195 ± 0.049	1.05 ± 0.043	0.934 ± 0.038	0.834 ± 0.034	0.753 ± 0.031
x2 = 0.00034, x1 = 0.0007042	1.221 ± 0.05	1.065 ± 0.044	0.947 ± 0.039	0.847 ± 0.035	0.764 ± 0.031
x2 = 0.0008651, x1 = 0.0007039	1.316 ± 0.054	1.152 ± 0.047	1.019 ± 0.042	0.911 ± 0.037	0.818 ± 0.034
x2 = 0.0008655, x1 = 0.001061	1.322 ± 0.054	1.159 ± 0.048	1.029 ± 0.042	0.917 ± 0.038	0.826 ± 0.034
x2 = 0.0008696, x1 = 0.001421	1.338 ± 0.055	1.172 ± 0.048	1.038 ± 0.043	0.923 ± 0.038	0.831 ± 0.034
x2 = 0.001399, x1 = 0.0007035	1.412 ± 0.058	1.233 ± 0.051	1.092 ± 0.045	0.974 ± 0.04	0.875 ± 0.036
x2 = 0.001401, x1 = 0.00142	1.432 ± 0.059	1.255 ± 0.052	1.116 ± 0.046	0.991 ± 0.041	0.888 ± 0.037
x2 = 0.001409, x1 = 0.00106	1.418 ± 0.058	1.244 ± 0.051	1.1 ± 0.045	0.98 ± 0.04	0.881 ± 0.036
x2 = 0.001955, x1 = 0.001419	1.545 ± 0.064	1.353 ± 0.056	1.2 ± 0.05	1.062 ± 0.044	0.951 ± 0.039
x2 = 0.001966, x1 = 0.0007031	1.521 ± 0.062	1.329 ± 0.055	1.178 ± 0.048	1.047 ± 0.043	0.938 ± 0.039
x2 = 0.00197, x1 = 0.00106	1.534 ± 0.063	1.34 ± 0.055	1.184 ± 0.049	1.054 ± 0.043	0.946 ± 0.039
x2 = 0.00252, x1 = 0.0007027	1.641 ± 0.068	1.432 ± 0.059	1.264 ± 0.052	1.125 ± 0.046	1.01 ± 0.042
x2 = 0.002559, x1 = 0.001419	1.685 ± 0.069	1.47 ± 0.061	1.302 ± 0.054	1.143 ± 0.047	1.03 ± 0.042
x2 = 0.003119, x1 = 0.0007023	1.784 ± 0.073	1.555 ± 0.064	1.369 ± 0.056	1.216 ± 0.05	1.088 ± 0.045
x2 = 0.003144, x1 = 0.001058	1.807 ± 0.074	1.572 ± 0.065	1.398 ± 0.058	1.231 ± 0.051	1.098 ± 0.045
x2 = 0.003161, x1 = 0.001418	1.832 ± 0.076	1.592 ± 0.066	1.412 ± 0.058	1.242 ± 0.051	1.112 ± 0.046
x2 = 0.003971, x1 = 0.0007017	2.011 ± 0.083	1.751 ± 0.072	1.539 ± 0.063	1.363 ± 0.056	1.216 ± 0.05
x2 = 0.003978, x1 = 0.001417	2.065 ± 0.085	1.788 ± 0.074	1.585 ± 0.065	1.387 ± 0.057	1.243 ± 0.051
x2 = 0.004835, x1 = 0.0007011	2.288 ± 0.094	1.987 ± 0.082	1.737 ± 0.072	1.534 ± 0.063	1.365 ± 0.056
x2 = 0.004866, x1 = 0.001415	2.36 ± 0.097	2.033 ± 0.084	1.798 ± 0.074	1.567 ± 0.065	1.394 ± 0.057
x2 = 0.00487, x1 = 0.001057	2.329 ± 0.096	2.011 ± 0.083	1.772 ± 0.073	1.556 ± 0.064	1.379 ± 0.057
x2 = 0.005535, x1 = 0.0007006	2.55 ± 0.11	2.197 ± 0.091	1.919 ± 0.079	1.69 ± 0.07	1.499 ± 0.062
x2 = 0.005568, x1 = 0.001056	2.58 ± 0.11	2.228 ± 0.092	1.956 ± 0.081	1.716 ± 0.071	1.513 ± 0.062
x2 = 0.00558, x1 = 0.001414	2.61 ± 0.11	2.251 ± 0.093	1.984 ± 0.082	1.726 ± 0.071	1.534 ± 0.063

CCCCCCCC[N+](C)(CCCCCCCC)CCCCCCCC.[Cl-] + COC(=O)OC
101 kPa
Conditions	electrical conductivity	viscosity [mPa·s]
298.15 K, x1 = 0.002	0.00012 ± 7.4e-06 S/m	–
298.15 K, x1 = 0.006	0.000267 ± 1.6e-05 S/m	–
298.15 K, x1 = 0.011	0.000601 ± 3.7e-05 S/m	–
298.15 K, x1 = 0.015	0.000944 ± 6.2e-05 S/m	–
298.15 K, x2 = 0	0.0026 ± 0.0002 S/m	2391 ± 800
298.15 K, x2 = 0.67	0.015 ± 0.0009 S/m	58.07 ± 0.9
298.15 K, x2 = 0.88	0.026 ± 0.0017 S/m	5.19 ± 0.15
298.15 K, x2 = 0.98	0.00126 ± 8e-05 S/m	–
303.15 K, x1 = 0.002	0.000143 ± 9.1e-06 S/m	–
303.15 K, x1 = 0.006	0.000346 ± 2.2e-05 S/m	–
303.15 K, x1 = 0.011	0.00075 ± 4.7e-05 S/m	–
303.15 K, x1 = 0.015	0.00122 ± 7.4e-05 S/m	–
303.15 K, x2 = 0.55	0.0126 ± 0.0008 S/m	123.5 ± 9.9
303.15 K, x2 = 0.98	0.00161 ± 9.9e-05 S/m	–
308.15 K, x1 = 0.002	0.000199 ± 1.3e-05 S/m	–
308.15 K, x1 = 0.006	0.00043 ± 2.7e-05 S/m	–
308.15 K, x2 = 0.76	0.0317 ± 0.002 S/m	15.98 ± 0.38
308.15 K, x2 = 0.95	0.0116 ± 0.0007 S/m	1.21 ± 0.04
308.15 K, x2 = 0.98	0.0017 S/m and 0.00175 S/m	0.71 ± 0.02
313.15 K, x1 = 0.006	0.0005 ± 3.1e-05 S/m	–
313.15 K, x1 = 0.011	0.00105 ± 6.4e-05 S/m	–
313.15 K, x2 = 0.55	0.0201 ± 0.0013 S/m	78.5 ± 3.2
313.15 K, x2 = 0.92	0.0292 ± 0.0018 S/m	1.9 ± 0.06
313.15 K, x2 = 0.98	0.00188 S/m and 0.0019 S/m	0.67 ± 0.02
318.15 K, x1 = 0.002	0.000399 ± 2.4e-05 S/m	–
318.15 K, x1 = 0.006	0.00062 ± 4e-05 S/m	–
318.15 K, x1 = 0.011	0.00115 ± 6.9e-05 S/m	–
318.15 K, x2 = 0.98	0.00197 ± 0.00012 S/m	–

CCCCCCCCn1cc[n+](C)c1.F[B-](F)(F)F + COC(C)=O
298.15 K, 101 kPa
Conditions	viscosity [mPa·s]
x2 = 0.199	100 ± 20
x2 = 0.5512	13.82 ± 0.18
x2 = 0.801	2.29 ± 0.04
x2 = 0.9515	0.63 ± 0.01
